The values that follow come from BindingDB's records for doi:10.1016/j.bmcl.2021.128058 (Hibercell, 2021).

The nature of this assay: Inhibition of eIF2alpha (unknown origin) assessed as eIF2alpha phosphorylation by TR-FRET assay. On the technique in general: Time-resolved FRET reads energy transfer from a long-lived donor to a nearby acceptor.
In the case of `Cc1cc(NC(=O)[C@H](O)c2cc(F)cc(F)c2)ccc1-c1cnc(N)c(C(=O)NC(C)C)c1`, the IC50 stood at 33 nM.
With `Cc1cc(NC(=O)[C@@H](O)c2cc(F)cc(F)c2)ccc1-c1cnc(N)c(C(=O)NC(C)C)c1`, the IC50 was 187 nM.
The result for `Cc1cc(NC(=O)[C@H](O)c2ccccc2)ccc1-c1cnc(N)c(C(=O)NC(C)C)c1` reads 198 nM; that for `Cc1cc(NC(=O)Cc2ccccc2)ccc1-c1cnc(N)c(C(=O)NC(C)C)c1`, 307 nM; that for `Cc1cc(NC(=O)Oc2ccccc2)ccc1-c1cnc(N)c(C(=O)NC(C)C)c1`, greater than 10000 nM.
As to `Cc1cc(NC(=O)Nc2ccccc2)ccc1-c1cnc(N)c(C(=O)NC(C)C)c1`, the IC50 came to 2360 nM.
With `CO[C@@H](C(=O)Nc1ccc(-c2cnc(N)c(C(=O)NC(C)C)c2)c(C)c1)c1ccccc1`, the IC50 was 3340 nM.
As for `Cc1cc(NC(=O)[C@](C)(O)c2ccccc2)ccc1-c1cnc(N)c(C(=O)NC(C)C)c1`, the IC50 was 2130 nM.
For the compound `Cc1cc(NC(=O)[C@@](C)(O)c2ccccc2)ccc1-c1cnc(N)c(C(=O)NC(C)C)c1`, the IC50 came to 3020 nM.
As for `Cc1cc(NC(=O)[C@H](O)c2cc(F)cc(F)c2)ccc1-c1cnc(N)c(C(=O)OC(C)C)c1`, the half-maximal inhibitory concentration (IC50) was 49 nM.
With `CNC(=O)c1cc(-c2ccc(NC(=O)[C@H](O)c3cc(F)cc(F)c3)cc2C)cnc1N`, the half-maximal inhibitory concentration (IC50) turned out to be 58 nM.
`Cc1cc(NC(=O)[C@H](O)c2cc(F)cc(F)c2)ccc1-c1cnc(N)c(C(=O)N(C)C)c1`: the IC50 was 2220 nM.
Regarding `CCNC(=O)c1cc(-c2ccc(NC(=O)[C@H](O)c3cc(F)cc(F)c3)cc2C)cnc1N`, the 50% inhibitory concentration (IC50) was determined as 45 nM.
`Cc1cc(NC(=O)[C@H](O)c2cc(F)cc(F)c2)ccc1-c1cnc(N)c(C(=O)NC2CC2)c1`: the IC50 amounted to 27 nM.
Take `Cc1cc(NC(=O)[C@H](O)c2cc(F)cc(F)c2)ccc1-c1cnc(N)c(C(=O)NC(C)(C)C)c1`: the 50% inhibitory concentration (IC50) came out at 114 nM.
As to `Cc1cc(NC(=O)[C@H](O)c2cccc(Cl)c2)ccc1-c1cnc(N)c(C(=O)NC(C)C)c1`, the IC50 amounted to 40 nM.
The result for `Cc1cccc([C@@H](O)C(=O)Nc2ccc(-c3cnc(N)c(C(=O)NC(C)C)c3)c(C)c2)c1` reads 54 nM; that for `CCc1cccc([C@@H](O)C(=O)Nc2ccc(-c3cnc(N)c(C(=O)NC(C)C)c3)c(C)c2)c1`, 18 nM; that for `CC(C)NC(=O)c1cc(-c2ccc(NC(=O)[C@H](O)c3cc(F)cc(F)c3)cc2)cnc1N`, 313 nM.
As for `CC(C)NC(=O)c1cc(-c2ccc(NC(=O)[C@H](O)c3cc(F)cc(F)c3)cc2F)cnc1N`, the IC50 was found to be 72 nM.
Consider `CC(C)NC(=O)c1cc(-c2ccc(NC(=O)[C@H](O)c3cc(F)cc(F)c3)cc2Cl)cnc1N`, for which the IC50 is 23 nM.
On to `CCc1cc(NC(=O)[C@H](O)c2cc(F)cc(F)c2)ccc1-c1cnc(N)c(C(=O)NC(C)C)c1`, for which the half-maximal inhibitory concentration (IC50) was determined as 9 nM.
Turning to `COc1cc(NC(=O)[C@H](O)c2cc(F)cc(F)c2)ccc1-c1cnc(N)c(C(=O)NC(C)C)c1`, the concentration for half-maximal inhibition (IC50) was 366 nM.
`Cc1cc(NC(=O)[C@H](O)c2cc(F)cc(F)c2)ccc1-c1cnc(N)c(C(=O)NC(C)C)n1`: the IC50 worked out at 42 nM.
On to `Cc1cc(NC(=O)[C@H](O)c2cc(F)cc(F)c2)ccc1-c1cc(C(=O)NC(C)C)c(N)nn1`, for which the half-inhibitory concentration (IC50) is 7650 nM.
Turning to `Cc1cc(NC(=O)[C@H](O)c2cc(F)cc(F)c2)ccc1-c1cncc(C(=O)NC(C)C)c1`, the IC50 came out at 181 nM.
Consider `Cc1cc(NC(=O)[C@H](O)c2cc(F)cc(F)c2)ccc1-c1cnc(C)c(C(=O)NC(C)C)c1`, for which the concentration for half-maximal inhibition (IC50) came out at 638 nM.
Consider `CNc1ncc(-c2ccc(NC(=O)[C@H](O)c3cc(F)cc(F)c3)cc2C)cc1C(=O)NC(C)C`, for which the half-inhibitory concentration (IC50) stood at 4030 nM.
The result for `Cc1cc(NC(=O)[C@H](O)c2cc(F)cc(F)c2)ccc1-c1ccc(N)nc1` reads greater than 10000 nM.
As for `CNC(=O)c1nc(-c2ccc(NC(=O)[C@H](O)c3cc(F)cc(F)c3)cc2C)cnc1N`, the IC50 is 40 nM.

What is called IC50 is the midpoint of a concentration-inhibition curve.
